Laboratory results reported in ChEMBL document CHEMBL1146818, “Yeast and mammalian alpha-glucosidase inhibitory constituents from Himalayan rhubarb Rheum emodi Wall.ex Meisson” (Bioorg Med Chem Lett, 2004).
Activity calls are given as the source filed them. No cut-off for these calls is given here.

Experiments:
[1] = Inhibitory activity against yeast alpha-glucosidase; active; details: Saccharomyces cerevisiae
[2] = biological target: Sucrase-isomaltase, intestinal (Rattus norvegicus) (UniProt P23739); experiment: Inhibitory activity against rat alpha-glucosidase; mild activity observed
Sucrase-isomaltase, intestinal (Rattus norvegicus), sequence (P23739 1-1013 limits assumed): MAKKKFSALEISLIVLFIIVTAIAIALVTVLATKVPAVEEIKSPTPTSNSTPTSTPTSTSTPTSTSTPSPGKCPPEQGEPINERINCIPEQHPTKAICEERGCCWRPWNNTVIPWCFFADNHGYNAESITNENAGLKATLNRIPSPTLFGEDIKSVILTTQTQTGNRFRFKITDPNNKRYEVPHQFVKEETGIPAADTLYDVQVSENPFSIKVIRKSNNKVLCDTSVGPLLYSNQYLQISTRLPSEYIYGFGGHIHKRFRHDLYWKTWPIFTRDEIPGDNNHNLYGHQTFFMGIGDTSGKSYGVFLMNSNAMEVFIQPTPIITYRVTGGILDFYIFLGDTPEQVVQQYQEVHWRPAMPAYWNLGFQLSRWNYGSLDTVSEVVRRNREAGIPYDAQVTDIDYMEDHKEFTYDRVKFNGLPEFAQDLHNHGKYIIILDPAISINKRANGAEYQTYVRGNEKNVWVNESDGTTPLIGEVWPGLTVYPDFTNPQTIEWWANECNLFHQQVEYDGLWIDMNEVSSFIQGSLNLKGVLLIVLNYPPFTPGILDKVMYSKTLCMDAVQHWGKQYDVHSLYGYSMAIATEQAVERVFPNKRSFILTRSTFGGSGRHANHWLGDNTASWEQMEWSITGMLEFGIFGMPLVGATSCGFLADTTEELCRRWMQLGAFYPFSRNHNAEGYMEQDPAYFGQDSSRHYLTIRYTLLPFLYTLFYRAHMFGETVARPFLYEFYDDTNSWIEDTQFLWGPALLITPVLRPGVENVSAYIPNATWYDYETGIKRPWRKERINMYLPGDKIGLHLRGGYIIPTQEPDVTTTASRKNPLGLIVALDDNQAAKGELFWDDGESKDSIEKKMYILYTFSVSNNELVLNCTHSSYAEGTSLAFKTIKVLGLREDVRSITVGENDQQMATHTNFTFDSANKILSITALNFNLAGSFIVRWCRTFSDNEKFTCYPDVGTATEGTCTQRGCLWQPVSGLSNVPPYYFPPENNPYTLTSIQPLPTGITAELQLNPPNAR
Sucrase-isomaltase, intestinal (Rattus norvegicus), sequence (P23739 1014-1841 limits assumed): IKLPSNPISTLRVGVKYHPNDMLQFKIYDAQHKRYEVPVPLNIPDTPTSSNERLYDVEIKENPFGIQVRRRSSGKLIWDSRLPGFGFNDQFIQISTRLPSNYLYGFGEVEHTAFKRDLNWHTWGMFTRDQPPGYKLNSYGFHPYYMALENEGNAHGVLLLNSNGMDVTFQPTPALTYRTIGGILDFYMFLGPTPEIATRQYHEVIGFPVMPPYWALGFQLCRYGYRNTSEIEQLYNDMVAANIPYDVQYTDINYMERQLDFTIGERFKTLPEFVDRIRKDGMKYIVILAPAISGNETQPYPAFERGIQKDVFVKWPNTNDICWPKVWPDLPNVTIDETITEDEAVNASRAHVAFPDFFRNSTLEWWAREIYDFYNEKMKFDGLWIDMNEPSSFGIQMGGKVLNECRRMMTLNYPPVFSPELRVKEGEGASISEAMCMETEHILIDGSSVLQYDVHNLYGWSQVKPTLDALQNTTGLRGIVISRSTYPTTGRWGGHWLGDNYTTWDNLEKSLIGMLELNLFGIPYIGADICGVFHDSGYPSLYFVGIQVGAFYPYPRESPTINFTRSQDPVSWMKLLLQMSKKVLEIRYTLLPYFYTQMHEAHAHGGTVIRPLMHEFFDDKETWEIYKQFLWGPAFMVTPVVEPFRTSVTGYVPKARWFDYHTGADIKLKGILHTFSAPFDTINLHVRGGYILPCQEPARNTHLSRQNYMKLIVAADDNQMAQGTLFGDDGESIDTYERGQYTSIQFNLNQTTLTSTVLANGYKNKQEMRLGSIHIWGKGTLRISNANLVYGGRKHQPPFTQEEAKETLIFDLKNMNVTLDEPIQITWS

[3] = Inhibitory activity against yeast alpha-glucosidase; mild activity observed; details: Saccharomyces cerevisiae
[4] = biological target: Sucrase-isomaltase, intestinal (Rattus norvegicus) (UniProt P23739); experiment: Inhibitory activity against rat alpha-glucosidase; moderate activity observed

inhibition [1] | inhibition [2] | inhibition [3] | inhibition [4] | SMILES
Active | – | – | – | COc1ccc(/C=C/c2cc(O)cc(O)c2)cc1O
– | Weak activity | Weak activity | – | COc1cc(O)c2c(c1)C(=O)c1cc(C)cc(O)c1C2=O
– | Weak activity | Weak activity | – | Cc1cc(=O)c2c(O)cc(O)cc2o1
Active | – | – | moderate activity observed | Cc1cc(O)c2c(c1)C(=O)c1cccc(O[C@@H]3C[C@H](CO)[C@@H](O)[C@H](O)[C@H]3O)c1C2=O
Active | – | – | moderate activity observed | COc1cc(O[C@@H]2C[C@H](CO)[C@@H](O)[C@H](O)[C@H]2O)c2c(O)c(C(C)=O)c(C)cc2c1
– | Weak activity | – | – | COc1ccc(/C=C/c2cc(O)cc(O[C@@H]3C[C@H](CO)[C@@H](O)[C@H](O)[C@H]3O)c2)cc1
